From patent publication US6855325B1, “Use of hypo-osmotic saline solutions and medicine based on said solutions” (Laboratoires GOEMAR S.A., priority 1999, dated 2005)
Entries after “also recorded” stand apart in the source; their conditions may differ.

Tests used:
interleukine IL-8 = assay: release of interleukine IL-8 in cultures of keratinocytes under the influence of MCK medium; assay type: cell-based, human; conditions: 4 hours incubation; saline solutions and physiological serum without dilution, dexamethasone 10 μM in MCK; control MCK = 100
From the text: Then the ability of the hypoosmotic saline solutions used according to the invention to prevent and to limit the release under the influence of certain diseases or certain pro-inflammatory agents of the chemical mediators responsible for the starting of the cutaneous inflammatory phenomena has been examined.
The tested chemical mediator was interleukine IL-8.
The pro-inflammatory agent was consisting of the MCK culture medium which appears to be at the origin of a strong release of interleukine IL-8 in cultures of keratinocytes.
The procedure was similar to that used in the above disclosed tests concerning the estimation of the cytotoxicity of the various tested products.
These products were the same.
The duration of the incubation was also equal to 4 hours.
Under the influence of the MCK medium, the release of interleukine IL-8 was 100 pg/mg of proteins; in that same medium determination has been carried out of the amounts of interleukine IL-8 released in the presence of the six tested products, i.e. on the one hand, the products J, I, H, K as well as physiological serum which were used without dilution and, on the other hand, dexamethasone which has been used at the rate of 10 μM in the MCK medium.

[1] = system: normal human epidermic keratinocytes; assay: cytotoxic effect: percentage of proteins remaining in keratinocytes after 4 hours of incubation; assay type: cell-based; conditions: 4 hours incubation
Experimental: For the examination of the toxicity, normal human epidermic keratinocytes were used which were taken from epidermis samples; they consist especially in keratinocytes isolated from the remains of an operation of an abdominal plasty carried out on a person (patient No. 10020).
These keratinocytes were cultivated at 37° C. in a culture medium intended for keratinocytes or MCK, i.e. the one which is marketed under the designation “SFM defined-keratinocyte medium” by the company GIBCO under a humid atmosphere containing 5% of CO2 until confluence of the monolayers.
These six products were incubated during 4 hours in the cultures of the keratinocytes.
Before the incubation, the cells, i.e. the keratinocytes, were rinsed with the tested products in order to eliminate any trace of culture medium.
The saline solutions J, I, H, and K and the physiological serum were used without dilution.
The dexamethasone has been tested at 10 μM in the medium MCK.
The cultures of keratinocytes were incubated in the presence of the six products during 4 hours at 37° C., under a humid atmosphere containing 5% of CO2.
The control cultures, incubated in the medium MCK in the absence of the six products, were carried out in parallel.
All these trials were carried out three times. […]

C[C@@H]1C[C@H]2[C@@H]3CCC4=CC(=O)C=C[C@]4(C)[C@@]3(F)[C@@H](O)C[C@]2(C)[C@@]1(O)C(=O)CO [Dexamethasone, dexamethasone]
amounts of interleukine IL-8 released (interleukine IL-8): 74 pg of IL-8/mg of proteins
cytotoxic effect with respect to keratinocytes (in words) [1]: not cytotoxic; also recorded: very few cytotoxic
